The data set can be described thus: Measurement of LogP values by HPLC on reversed phase columns (EEC directive 79/831 Annex V.A8). The following applies: method [a]: LC-UV, acidic range, 0.1% formic acid in water and acetonitrile as eluent. The data set is classed as physicochemical. On the procedure: Measurement of LogP values was performed according to EEC directive 79/831 Annex V.A8 by HPLC (High Performance Liquid Chromatography) on reversed phase columns with the following methods: • ^[a] Log P value is determined by measurement of LC-UV, in an acidic range, with 0.1% formic acid in water and acetonitrile as eluent (linear gradient from 10% acetonitrile to 95% acetonitrile). • ^[b] Log P value is determined by measurement of LC-UV, in a neutral range, with 0.001 molar ammonium acetate solution in water and acetonitrile as eluent (linear gradient from 10% acetonitrile to 95% acetonitrile). • ^[c] Log P value is determined by measurement of LC-UV, in an acidic range, with 0.1% phosphoric acid and acetonitrile as eluent (linear gradient from 10% acetonitrile to 95% acetonitrile).
If more than one Log P value is available within the same method, all the values are given and separated by “+”.
Calibration was done with straight-chain alkan2-ones (with 3 to 16 carbon atoms) with known Log P values (measurement of Log P values using retention times with linear interpolation between successive alkanones). Lambda-max-values were determined using UV-spectra from 200 nm to 400 nm and the peak values of the chromatographic signals.

[1] abbreviates: reversed-phase HPLC column, Table 1.

LogP and chromatographic logP data for 41 compounds are collected here from patent publication US20200039973A1, “NOVEL 5-SUBSTITUTED IMIDAZOLYLMETHYL DERIVATIVES” (BAYER CROPSCIENCE AKTIENGESELLSCHAFT, priority 2016, published 2020).

Take `N#Cc1cncn1CC(O)(Cc1ccc(F)c(F)c1F)c1ccc(F)cc1F` (centres unmarked) [I-03]: the LogP (Table 1) was 2.96^[a]. Regarding `N#Cc1cncn1CC(O)(Cc1ccccc1F)c1ccco1` (centres unmarked) [I-30], for the setting “Table 1”, the LogP was 2.15^[a]. As for `N#Cc1cncn1CC(O)(Cc1cccc(F)c1F)c1cc(F)ccc1F` (centres unmarked) [I-29], the LogP (Table 1) was 2.73^[a]. In the case of `N#Cc1cncn1CC(O)(Cc1ccc(F)cc1F)c1ccccc1` (centres unmarked) [I-09], where the note is “Table 1”, the LogP was 2.60^[a]. Same read-out and setting: the same measure for `N#Cc1cncn1CC(O)(Cc1cccc(F)c1F)c1ccco1` (centres unmarked) [I-31]: 2.25^[a]. As to `N#Cc1cncn1CC(O)(Cc1ccccc1F)C1(c2ccccc2)CC1` (centres unmarked) [I-14], under “Table 1”, the LogP is 3.18^[a]. As for `N#Cc1cncn1CC(=O)Cc1ccccc1Cl` [XVIIa-05], the LogP (Table 2 (formula XVIIa)) was 1.82^[a]. Turning to `N#Cc1cncn1CC(O)(Cc1ccccc1Cl)c1ccc(F)cc1F` (centres unmarked) [I-01], for the setting “Table 1”, the LogP is 3.00^[a]. With `N#Cc1cncn1CC(O)(Cc1ccc(F)cc1F)c1ccc(F)cc1F` (centres unmarked) [I-02], the LogP (Table 1) is 2.82^[a]. As for `N#Cc1cncn1CC(O)(Cc1ccc(F)cc1F)c1cc(F)ccc1F` (centres unmarked) [I-27], the LogP (Table 1) is 2.77^[a]. Consider `N#Cc1cncn1CC(=O)Cc1cccc(F)c1F` [XVIIa-02], for which the LogP (Table 2 (formula XVIIa)) is 1.87^[a]. In the case of `N#Cc1cncn1CC(O)(Cc1ccccc1Cl)c1ccco1` (centres unmarked) [I-32], the LogP (Table 1) was 2.45^[a].

For the compound `N#Cc1cncn1CC(O)(Cc1cccc(Cl)c1F)c1ccc(F)cc1F` (centres unmarked) [I-22], the LogP (Table 1) was 3.06^[a]. The same measure, in the same setting: the same measure for `N#Cc1cncn1CC(O)(Cc1ccc(F)cc1)c1ccccc1` (centres unmarked) [I-05]: 2.47^[a]. Still for that read-out and setting: next, `N#Cc1cncn1CC(O)(Cc1cccc(Cl)c1F)c1ccco1` (centres unmarked) [I-33]: 2.57^[a]. In the case of `N#Cc1cncn1CC(O)(Cc1ccccc1F)c1ccc(Cl)s1` (centres unmarked) [I-19], the LogP (Table 1) is 2.78^[a].

`N#Cc1cncn1CC(O)(Cc1ccc(F)cc1F)c1ccco1` (centres unmarked) [I-34, 3-[3-(2,4-difluorophenyl)-2-(2-furyl)-2-hydroxy-propyl]imidazole-4-carbonitrile] gave a chromatographic logP (Table 1) of 2.32. Consider `N#Cc1cncn1CC(O)(Cc1ccccc1F)c1ccccc1` (centres unmarked) [I-08], for which, where the note is “Table 1”, the LogP is 2.51^[a]. Consider `N#Cc1cncn1CC(O)(Cc1ccc(F)cc1F)c1ccc(Cl)s1` (centres unmarked) [I-10], for which, for the setting “Table 1”, the LogP is 2.90^[a]. Consider `N#Cc1cncn1CC(O)(Cc1ccccc1F)c1cc(F)ccc1F` (centres unmarked) [I-25], for which, for the setting “Table 1”, the LogP is 2.63^[a]. For `N#Cc1cncn1CC(O)(Cc1ccc(Cl)cc1F)c1ccccc1` (centres unmarked) [I-18], the LogP (Table 1) is 2.98^[a]. Consider `N#Cc1cncn1CC(O)(Cc1ccc(Cl)cc1F)c1ccc(F)cc1F` (centres unmarked) [I-07], for which the LogP (Table 1) was 3.17^[a]. Turning to `N#Cc1cncn1CC(=O)Cc1ccccc1F` [XVIIa-03], the LogP (Table 2 (formula XVIIa)) was 1.75^[a]. In the case of `N#Cc1cncn1CC(O)(Cc1ccccc1Cl)c1ccccc1` (centres unmarked) [I-17], the LogP (Table 1) is 2.70^[a]. For the compound `Cc1cccc(CC(O)(Cn2cncc2C#N)c2ccc(F)cc2F)c1F` (centres unmarked) [I-11], for the setting “Table 1”, the LogP is 2.98^[a]. For `N#Cc1cncn1CC(O)(Cc1cccc(F)c1F)c1ccc(Cl)s1` (centres unmarked) [I-16, 3-[2-(5-chloro-2-thienyl)-3-(2,3-difluorophenyl)-2-hydroxy-propyl]imidazole-4-carbonitrile], the chromatographic logP under setting [1] was determined as 2.86. Consider `N#Cc1cncn1CC(O)(Cc1ccc(Cl)cc1F)c1cc(F)ccc1F` (centres unmarked) [I-26], for which the LogP (Table 1) was 3.07^[a]. As for `N#Cc1cncn1CC(O)(Cc1ccccc1)c1ccc(F)cc1F` (centres unmarked) [I-13, 3-[2-(2,4-difluorophenyl)-2-hydroxy-3-phenyl-propyl]imidazole-4-carbonitrile], the chromatographic logP under setting [1] came out at 2.68. Regarding `N#Cc1cncn1CC(O)(Cc1ccccc1F)c1ccc(F)cc1F` (centres unmarked) [I-20], the LogP (Table 1) was 2.68^[a]. `N#Cc1cncn1CC(=O)Cc1ccccc1` [XVIIa-04]: the LogP (Table 2 (formula XVIIa)) was 1.65^[a]. Consider `N#Cc1cncn1CC(O)(Cc1ccccc1Cl)C1(c2ccccc2)CC1` (centres unmarked) [I-15], for which, under “Table 1”, the LogP was 3.44^[a]. Regarding `N#Cc1cncn1CC(=O)Cc1ccc(Cl)cc1` [XVIIa-07], the LogP (Table 2 (formula XVIIa)) was 2.14^[a]. For `N#Cc1cncn1CC(O)(Cc1ccccc1Cl)c1cc(F)ccc1F` (centres unmarked) [I-28], for the setting “Table 1”, the LogP was 2.92^[a]. Consider `N#Cc1cncn1CC(O)(Cc1cccc(F)c1F)c1ccccc1` (centres unmarked) [I-04], for which the LogP (Table 1) is 2.40^[a]. `N#Cc1cncn1CC(O)(Cc1ccc(F)cc1)c1ccc(F)cc1F` (centres unmarked) [I-24]: the LogP (Table 1) is 2.73^[a]. For the compound `N#Cc1cncn1CC(=O)Cc1ccccc1Br` [XVIIa-06], the LogP (Table 2 (formula XVIIa)) is 2.02^[a]. For the compound `N#Cc1cncn1CC(O)(Cc1cccc(F)c1F)C1(c2ccccc2)CC1` (centres unmarked) [I-23], the LogP (Table 1) is 3.25^[a]. In the case of `N#Cc1cncn1CC(O)(Cc1ccc(F)cc1F)C1(c2ccccc2)CC1` (centres unmarked) [I-06, 3-[3-(2,4-difluorophenyl)-2-hydroxy-2-(1-phenylcyclopropyl)propyl]imidazole-4-carbonitrile], under setting [1], the chromatographic logP is 3.29. As to `N#Cc1cncn1CC(O)(Cc1cccc(F)c1F)c1ccc(F)cc1F` (centres unmarked) [I-12], under “Table 1”, the LogP is 2.75^[a].

With `N#Cc1cncn1CC(O)(Cc1ccc(F)c(F)c1F)c1ccccc1` (centres unmarked) [I-21], for the setting “Table 1”, the LogP is 2.57^[a]. Compound `N#Cc1cncn1CC(=O)C1(c2ccccc2)CC1` [XVIIa-01, 3-[2-oxo-2-(1-phenylcyclopropyl)ethyl]imidazole-4-carbonitrile] registered a chromatographic logP (reversed-phase HPLC column, Table 2 (formula XVIIa)) of 2.17.
